Experiment [1] has as its target T1, human thrombopoietin receptor (c-mpl) (Homo sapiens, UniProt P40238).
T1 construct: expressed in transfected cells
T1 sequence (P40238 26-635): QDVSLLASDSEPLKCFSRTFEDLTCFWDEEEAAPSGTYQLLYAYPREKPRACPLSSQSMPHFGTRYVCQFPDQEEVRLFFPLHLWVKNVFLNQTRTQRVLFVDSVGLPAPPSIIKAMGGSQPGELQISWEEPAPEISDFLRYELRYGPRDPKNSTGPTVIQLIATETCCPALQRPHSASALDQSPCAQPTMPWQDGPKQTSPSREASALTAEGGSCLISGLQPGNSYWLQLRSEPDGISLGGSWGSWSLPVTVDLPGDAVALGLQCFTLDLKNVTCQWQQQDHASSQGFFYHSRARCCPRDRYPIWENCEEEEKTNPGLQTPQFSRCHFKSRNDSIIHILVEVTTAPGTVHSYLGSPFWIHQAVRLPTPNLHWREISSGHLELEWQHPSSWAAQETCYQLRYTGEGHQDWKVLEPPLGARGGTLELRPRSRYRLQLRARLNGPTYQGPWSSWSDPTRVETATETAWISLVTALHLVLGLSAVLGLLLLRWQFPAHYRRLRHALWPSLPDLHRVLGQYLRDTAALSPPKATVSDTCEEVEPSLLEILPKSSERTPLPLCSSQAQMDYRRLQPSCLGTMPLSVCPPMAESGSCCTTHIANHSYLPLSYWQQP
Put plainly: Stimulation of proliferation of thrombopoietin-dependent cell line UT7/EPO-mpl (WST-8). The format is cell-based. As to conditions: for EC50: human leukemic cell line UT-7/EPO-mpl, 4 days incubation, relative to 10 ng/mL TPO, read-out: EC50 (concentration that yields a growth rate corresponding to 50% of the growth observed in the presence of 10 ng/mL TPO) (converted). As for the experimental part:
The response of thrombopoietin receptor to the compound of Synthetic Example 2 of the present invention was assayed using a human leukemic cell line, UT7/EPO-mpl.
(§1) UT7/EPO-mpl is a stable transformed cell line obtained by introducing into human leukemic cell line UT7/EPO a vector that induces expression of human thrombopoietin receptor (c-mpl) under control of cytomegalovirus immediate-early promoter by the method of Takatoku et al. (J. Biol. Chem., 272:7259-7263 (1997)). […] These two cell lines were subcultured in IMDM (GIBCO) containing 10% fetal bovine serum (Thermo Electron or BioWest) using a CO2 incubator (5% CO2, 37° C.).
The subcultured cells described above were washed twice with PBS and suspended in IMDM containing 10% fetal bovine serum at a cell density of 6×10^4 cells/ml. The cell suspension was transferred to a 96-well tissue culture plate (CORNING) in 100-μl aliquots. Then either thrombopoietin (Pepro Tech EC, or the compound of Synthetic Example 2 dissolved in dimethyl sulfoxide was diluted 83-fold with IMDM containing 10% fetal bovine serum and added to the aforementioned cell suspension in 20-μl aliquots. The cell suspension was incubated in a CO2 incubator (5% CO2, 37° C.) for 4 days. Cell proliferation was assayed using WST-8 reagent (Kishida Chemical Co., Ltd.) according to instructions by the manufacturer. A 10-μl aliquot of 5 mM WST-8 reagent solution was added to each well of the tissue culture plate, and the plate was incubated at 37° C. for 4 hours. The formazan pigment generated was detected by measuring the absorbance at 450 nm with a 96-well microplate reader (Nihon Molecular Devices, Spectramax 190).
The compounds of the following Synthetic Examples were tested according to the method of Assay Example 1 to determine the concentration of each compound that yields a growth rate corresponding to 50% of the growth of human leukemic cell line UT-7/EPO-mpl observed in the presence of 10 ng/mL TPO (EC50).
In general terms: Tetrazolium assays rely on reduction of a dye to a coloured formazan, in cell work by metabolically active cells.

Experiment [2] relates to UT7/EPO cells. The experiment can be described thus: Proliferation of mother cell line UT7/EPO expressing no thrombopoietin receptor (WST-8). The experiment is classed as cell-based, human. Conditions: FIG. 2. As for the experimental part:
as §1
The subcultured cells described above were washed twice with PBS and suspended in IMDM containing 10% fetal bovine serum at a cell density of 6×10^4 cells/ml. The cell suspension was transferred to a 96-well tissue culture plate (CORNING) in 100-μl aliquots. […] The formazan pigment generated was detected by measuring the absorbance at 450 nm with a 96-well microplate reader (Nihon Molecular Devices, Spectramax 190).

Experiment [3] concerns UT7/EPO cells. As to conditions: property of the cell line as described; cited from earlier work.
Experiment [4] has as its target T1, human thrombopoietin receptor (c-mpl). Conditions: property of the cell line as described; cited from earlier work.

As to `C/C(=N\NC(=O)c1ccc(C(=O)NCC2CCCO2)s1)c1csc(-c2ccc(Cl)c(Cl)c2)c1O` (stereo not shown) [Synthetic Example 2, 5-{1-[5-(3,4-Dichlorophenyl)-4-hydroxythiophen-3-yl]ethylidenehydrazinocarbonyl}thiophene-2-carboxylic acid(tetrahydrofuran-2-ylmethyl)amide], the “proliferation of thrombopoietin-responsive UT7/EPO-mpl cells” value in experiment [1] (FIG. 1, UT7/EPO-mpl cells, 4 days, WST-8 absorbance at 450 nm) is on record as “stimulated”. For the same compound, the “acts on the thrombopoietin receptor selectively as an activator” value in experiment [1] (conclusion from UT7/EPO-mpl versus UT7/EPO) was “selectively”. The “effect on proliferation of UT7/EPO, the mother cell line” value with UT7/EPO cells [2] was “no effect”.

As to `CC(=O)NC1CCN(C(=O)c2ccc(C(=O)N/N=C(\C)c3csc(-c4ccc(Cl)c(Cl)c4)c3O)s2)C1` (stereo not shown) [compound 5], the EC50 in experiment [1] is 0.566 nM.

With `C/C(=N\NC(=O)c1ccc(C(=O)NN(C)C)s1)c1csc(-c2ccc(C(C)(C)C)cc2)c1O` [compound 24], the EC50 in experiment [1] was 2.27 nM.

As to `C/C(=N\NC(=O)c1ccc(C(=O)NCCC(=O)O)s1)c1csc(-c2ccc(Cl)cc2)c1O` [compound 45], the EC50 in experiment [1] is 6.5 nM.

Take `C/C(=N\NC(=O)c1ccc(C(=O)NCCCN2CCOCC2)s1)c1nn(C)c(-c2ccc(C(F)(F)F)cc2)c1O` [compound 49]: the EC50 in experiment [1] is 2.77 nM.

For `C/C(=N\NC(=O)c1ccc(C(=O)NNc2ccccn2)s1)c1csc(-c2ccc(Cl)c(Cl)c2)c1O` [compound 58], the EC50 in experiment [1] is 1.56 nM.

As for `C/C(=N\NC(=O)c1ccc(C(=O)NCCC(=O)O)s1)c1csc(-c2ccc(C)c(C)c2)c1O` [compound 65], the EC50 in experiment [1] is 4.12 nM.

With `COC1CN(C(=O)c2ccc(C(=O)N/N=C(\C)c3csc(-c4ccc(Br)cc4)c3O)s2)CC1OC` (stereo not shown) [compound 84], the EC50 in experiment [1] was 5.01 nM.

`C/C(=N\NC(=O)c1ccc(C(=O)N2CC(O)C(O)C2)s1)c1csc(-c2cccc(Cl)c2)c1O` (stereo not shown) [compound 90]: the EC50 in experiment [1] was 0.652 nM.

Turning to “TPO: Thrombopoietin is a cytokine consisting of 332 amino acids that increases platelet production”, the “response of mother cell line UT7/EPO” value with UT7/EPO cells [3] is on record as “no response”. For the same compound, in experiment [4], the “proliferation of UT7/EPO-mpl cell line” value is reported as “stimulated”.

The record behind these values is patent US8134013B2, “Amide compound and thrombopoietin receptor activator” (Nissan Chemical Industries, Ltd., priority 2004, dated 2012).
